In data set [1] the target is UDP-galactopyranose mutase (Mycobacterium tuberculosis, UniProt P9WIQ1). Nature of the data set: Inhibitors of Mycobacterium tuberculosis UDP-galactopyranose mutase (UGM) enzyme Measured in Biochemical System Using Plate Reader - 2105-02_Inhibitor_Dose_CherryPick_Activity. [Related pubchem assays (depositor defined):AID504439].
Data set [2] concerns the target T1, RNA-binding protein pos-1 (Caenorhabditis elegans, UniProt G5EF15).
T1 sequence (G5EF15 whole entry): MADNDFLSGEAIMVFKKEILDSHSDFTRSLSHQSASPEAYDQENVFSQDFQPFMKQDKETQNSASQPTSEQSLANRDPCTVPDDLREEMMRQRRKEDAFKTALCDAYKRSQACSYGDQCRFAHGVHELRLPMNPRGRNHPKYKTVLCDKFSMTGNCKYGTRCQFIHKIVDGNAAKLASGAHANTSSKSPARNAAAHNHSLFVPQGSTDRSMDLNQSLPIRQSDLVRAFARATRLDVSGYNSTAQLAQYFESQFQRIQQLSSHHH
Nature of the data set: disruptors of C. elegans POS-1 RNA interaction – biochemical, fluorescence polarization, dose response (AID 1964).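 Further: purified POS-1 fused to maltose binding protein made in E. coli; potency of compounds blocking POS-1 binding to fluorescent RNA.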

Data set [3] deals with T2, Zinc finger protein mex-5 (Caenorhabditis elegans, UniProt Q9XUB2).
T2 sequence (Q9XUB2 whole entry): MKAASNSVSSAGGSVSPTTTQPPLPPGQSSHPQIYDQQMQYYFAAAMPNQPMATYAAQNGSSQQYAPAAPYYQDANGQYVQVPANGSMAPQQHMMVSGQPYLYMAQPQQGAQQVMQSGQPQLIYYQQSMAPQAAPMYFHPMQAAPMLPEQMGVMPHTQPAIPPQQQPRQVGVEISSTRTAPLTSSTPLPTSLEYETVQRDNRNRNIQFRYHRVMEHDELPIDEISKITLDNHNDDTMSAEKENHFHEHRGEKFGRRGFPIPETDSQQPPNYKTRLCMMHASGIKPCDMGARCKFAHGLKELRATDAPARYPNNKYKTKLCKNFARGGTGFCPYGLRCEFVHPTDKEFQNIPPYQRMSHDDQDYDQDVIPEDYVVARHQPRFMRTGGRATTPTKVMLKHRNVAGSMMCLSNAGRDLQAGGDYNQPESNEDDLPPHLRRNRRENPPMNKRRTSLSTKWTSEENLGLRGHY
Nature of the data set: potency of MEX-5 RNA-binding blockers – biochemical, C. elegans, fluorescence polarization, dose response (AID 1960). A general note: In fluorescence polarisation assays a small probe gives low polarisation when free and higher when bound to something large.

Data set [4] has as its target Cytochrome P450 2C19 (Homo sapiens, UniProt P33261). Nature of the data set: Cytochrome panel assay with activity outcomes. Panel member name: p450-cyp2c19 Compounds with AC50 equal or less than 10 uM are considered active. It counts as functional. The settings on record: read-out: AC50.
Data set [5] deals with Cytochrome P450 2D6 (Homo sapiens, UniProt P10635).
Data set [6] addresses T3, Cytochrome P450 1A2 (Homo sapiens, UniProt P05177).
T3 sequence (P05177 whole entry): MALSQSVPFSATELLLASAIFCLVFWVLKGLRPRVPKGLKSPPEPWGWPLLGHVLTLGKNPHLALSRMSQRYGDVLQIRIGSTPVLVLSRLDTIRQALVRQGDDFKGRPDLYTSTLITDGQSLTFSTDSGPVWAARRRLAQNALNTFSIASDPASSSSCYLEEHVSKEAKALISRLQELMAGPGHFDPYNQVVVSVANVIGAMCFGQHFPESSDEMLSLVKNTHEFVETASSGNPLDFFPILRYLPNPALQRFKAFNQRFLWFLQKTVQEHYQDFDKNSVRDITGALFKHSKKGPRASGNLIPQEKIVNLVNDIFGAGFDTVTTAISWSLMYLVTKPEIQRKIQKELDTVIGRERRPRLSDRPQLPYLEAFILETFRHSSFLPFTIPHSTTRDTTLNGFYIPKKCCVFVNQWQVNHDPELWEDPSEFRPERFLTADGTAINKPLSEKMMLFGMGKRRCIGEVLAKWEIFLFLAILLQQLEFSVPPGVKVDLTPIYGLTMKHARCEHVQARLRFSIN

The target in data set [7] is Beta-galactosidase (Escherichia coli, UniProt Q8VNN2). Kind of data set: detection-enzyme interference by beta-gal modulators – biochemical, E. coli enzyme, set 3, artefact control for CCR6 antagonist project, dose response (AID 504712). In kind it is functional.
Data set [8] addresses Apelin receptor (Homo sapiens, UniProt P35414). Nature of the data set: apelin receptor antagonists, arrestin read-out – cell-based, luminescent, enzyme-fragment complementation, selectivity assay for CCR6 antagonist project, SAR follow-up (AID 588359). In kind it is functional.
Data set [9] has as its target Keap1/Nrf2 (Homo sapiens, UniProt Q14145). Kind of data set: disruptors of Keap1 binding to Nrf2 peptide – biochemical, fluorescence polarization, cherry-picked samples, dose response (AID 588683).
Data set [10] in a line: alpha-synuclein stem-loop luciferase translation blockers – H4 neuroglioma cells, luminescence, confirmation (AID 1988). It counts as functional, cell-based.
A short description of data set [11]: microbe, parasite or virus in culture. It counts as functional. The settings on record: Mycobacterium tuberculosis.
Data set [12] concerns HEK293. Kind of data set: cells. The settings on record: Homo sapiens.
Data set [13] in a line: Luminescence Cell-Based Dose Response HTS to Identify Inhibitors of 5'UTR Stem-Loop Driven Prion Protein mRNA Translation in H4 Neuroglioblastoma Cells. [Related pubchem assays: 1827 (Project Summary), 1813 (Primary HTS)]. It counts as functional.
Data set [14] has as its system Streptococcus sp. 'group A'. Nature of the data set: Streptococcus pyogenes SK(-)GAS viability under kanamycin – luminescence, BacTiterGlo, confirmation, counter-screen for streptokinase expression inhibitor project, dose response (AID 1900). In kind it is functional, organism-based. On the technique in general: A counterscreen serves to expose hits that act by an unwanted route or on another target.

The target of data set [15] is C-C chemokine receptor type 6 (Homo sapiens, UniProt P51684). Kind of data set: antagonism of CCR6 beta-arrestin recruitment – cell-based, luminescent beta-arrestin readout, dose response (AID 504728). It counts as functional.
Data set [16] has as its system HEK293. Kind of data set: cells. The following applies: Homo sapiens. The source holds these as a separate data set.
The subject of data set [17] is INS1. Kind of data set: INS-1E survival protection against cytokine death – cell-based, luminescence, retest, dose response (AID 449756).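 Further: cell death triggered by IL-1 beta plus TNF-alpha plus IFN-gamma mixture; protective hits raise ATP signal compared with cytokine alone wells.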 It counts as functional. The following applies: Rattus norvegicus.
The subject of data set [18] is Streptococcus. Kind of data set: GAS UMAA2166 growth inhibition – luminescence, BacTiterGlo, counter-screen for streptokinase expression inhibitor project, dose response (AID 1915).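 Further: potency for reduction of bacterial viability or growth.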 In kind it is functional, organism-based.
Data set [19] in a line: luciferase reporter signal suppression in cells – H4 neuroglioma cells, luminescence, dose response (AID 1990). It counts as functional, cell-based.
For data set [20], the target named is T4, Streptokinase A (Streptococcus pyogenes serotype M1, UniProt P10520).
T4 sequence (P10520 whole entry): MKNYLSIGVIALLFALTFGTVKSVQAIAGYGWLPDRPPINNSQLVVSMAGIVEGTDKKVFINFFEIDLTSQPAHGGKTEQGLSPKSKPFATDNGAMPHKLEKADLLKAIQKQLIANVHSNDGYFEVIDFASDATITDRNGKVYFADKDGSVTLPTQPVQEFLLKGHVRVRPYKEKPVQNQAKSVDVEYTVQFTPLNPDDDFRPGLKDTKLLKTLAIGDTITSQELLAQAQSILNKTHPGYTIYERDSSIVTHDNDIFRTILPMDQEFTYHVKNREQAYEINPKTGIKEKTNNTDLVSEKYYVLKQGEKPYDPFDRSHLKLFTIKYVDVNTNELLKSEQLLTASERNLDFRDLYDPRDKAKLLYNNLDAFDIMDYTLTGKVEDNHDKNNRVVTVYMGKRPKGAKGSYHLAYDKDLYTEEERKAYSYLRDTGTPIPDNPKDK
Nature of the data set: viability-normalized secreted streptokinase activity reduction – plasminogen activation absorbance, OD405, dose response (AID 1914).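 Further: secreted streptokinase activity via plasminogen activation per viability signal from cell pellet.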 In kind it is functional, Streptococcus pyogenes M1 GAS.

Data set [21] addresses T5, Alkaline phosphatase, tissue-nonspecific isozyme (Homo sapiens, UniProt P05186).
T5 sequence (P05186 whole entry): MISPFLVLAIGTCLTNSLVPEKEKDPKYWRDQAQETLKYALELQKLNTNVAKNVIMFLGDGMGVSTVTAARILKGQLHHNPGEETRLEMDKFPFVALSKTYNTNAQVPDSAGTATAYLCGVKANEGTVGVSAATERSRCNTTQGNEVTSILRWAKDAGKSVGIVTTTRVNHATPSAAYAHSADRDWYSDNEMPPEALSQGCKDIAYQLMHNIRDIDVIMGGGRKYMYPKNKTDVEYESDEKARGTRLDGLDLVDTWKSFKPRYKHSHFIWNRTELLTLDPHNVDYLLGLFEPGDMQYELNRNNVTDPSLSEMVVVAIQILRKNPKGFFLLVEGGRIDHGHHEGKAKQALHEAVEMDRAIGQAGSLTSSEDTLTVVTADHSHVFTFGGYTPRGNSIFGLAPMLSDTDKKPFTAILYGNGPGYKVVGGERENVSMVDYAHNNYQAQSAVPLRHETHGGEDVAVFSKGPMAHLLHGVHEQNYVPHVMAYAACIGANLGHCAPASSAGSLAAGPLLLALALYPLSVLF
Kind of data set: inhibition of tissue-nonspecific alkaline phosphatase – biochemical, dose response (AID 488882). It counts as functional.

Data set [22] has as its target Nonstructural protein 1 (Influenza A virus, UniProt Q194T2). In kind it is functional, Influenza A virus (A/California/07/2009(H1N1)).
For data set [23], the target named is T6, Intestinal-type alkaline phosphatase (Homo sapiens, UniProt P09923). Kind of data set: human intestinal alkaline phosphatase activators, dose response, biochemical, luminescence, uHTS hits (AID 463120). It counts as functional.
In data set [24] the target is T6, Intestinal-type alkaline phosphatase. Nature of the data set: activation of human intestinal alkaline phosphatase – biochemical, luminescent, uHTS hits, set 2, dose response (AID 488817).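 Further: potency of activators that raise enzyme activity.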 It counts as functional.
Data set [25] has as its target T7, Rac GTPase-activating protein 1 (Homo sapiens, UniProt Q9H0H5).
T7 sequence (Q9H0H5 whole entry): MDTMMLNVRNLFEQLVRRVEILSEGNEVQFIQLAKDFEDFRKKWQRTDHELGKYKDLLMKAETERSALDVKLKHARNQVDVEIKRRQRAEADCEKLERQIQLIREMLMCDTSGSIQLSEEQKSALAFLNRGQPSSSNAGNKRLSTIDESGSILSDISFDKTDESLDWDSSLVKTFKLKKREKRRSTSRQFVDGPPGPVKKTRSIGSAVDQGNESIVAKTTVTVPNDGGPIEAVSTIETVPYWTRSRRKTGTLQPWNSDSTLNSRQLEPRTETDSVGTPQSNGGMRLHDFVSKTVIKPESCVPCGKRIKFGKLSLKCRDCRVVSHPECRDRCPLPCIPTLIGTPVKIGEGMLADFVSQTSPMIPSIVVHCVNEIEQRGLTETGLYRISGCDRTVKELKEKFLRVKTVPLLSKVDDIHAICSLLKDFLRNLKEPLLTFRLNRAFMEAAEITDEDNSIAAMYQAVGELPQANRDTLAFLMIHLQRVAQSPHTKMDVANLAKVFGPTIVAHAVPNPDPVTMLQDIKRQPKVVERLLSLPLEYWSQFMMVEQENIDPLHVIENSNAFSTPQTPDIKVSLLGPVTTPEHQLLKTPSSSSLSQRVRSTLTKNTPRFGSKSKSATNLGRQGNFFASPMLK
Nature of the data set: blockers of MgcRacGAP-driven Rac1 GTP hydrolysis – biochemical, ADP Hunter fluorescence, primary and confirmatory, confirmation (AID 624330). It counts as functional.

Data set [26] is described as follows: viability loss in HeLa cells – cytotoxicity control for MgcRacGAP inhibitor project, dose response (AID 624300). It counts as functional.
Data set [27] has as its target Induced myeloid leukemia cell differentiation protein Mcl-1 (Homo sapiens, UniProt Q07820). In kind it is functional.
Data set [28] concerns the target Intestinal-type alkaline phosphatase (Mus musculus, UniProt P24822). Kind of data set: PubChem AID 488874. It counts as functional.

Results on six compounds are retold here after ChEMBL document CHEMBL1201862, “PubChem BioAssay data set” (2004).

For orientation: AC50 means the concentration giving half of the maximal activity seen. As usually defined, the EC50 is the concentration needed to bring the measured effect to its halfway point. Usually IC50 stands for the midpoint of a concentration-inhibition curve.

Each structure is given as a SMILES string. Active and inactive are the calls of the source. Where only a bound is given, the exact number is not on record here.

Sequence of Beta-galactosidase (Q8VNN2 whole entry, the tested form may be a part): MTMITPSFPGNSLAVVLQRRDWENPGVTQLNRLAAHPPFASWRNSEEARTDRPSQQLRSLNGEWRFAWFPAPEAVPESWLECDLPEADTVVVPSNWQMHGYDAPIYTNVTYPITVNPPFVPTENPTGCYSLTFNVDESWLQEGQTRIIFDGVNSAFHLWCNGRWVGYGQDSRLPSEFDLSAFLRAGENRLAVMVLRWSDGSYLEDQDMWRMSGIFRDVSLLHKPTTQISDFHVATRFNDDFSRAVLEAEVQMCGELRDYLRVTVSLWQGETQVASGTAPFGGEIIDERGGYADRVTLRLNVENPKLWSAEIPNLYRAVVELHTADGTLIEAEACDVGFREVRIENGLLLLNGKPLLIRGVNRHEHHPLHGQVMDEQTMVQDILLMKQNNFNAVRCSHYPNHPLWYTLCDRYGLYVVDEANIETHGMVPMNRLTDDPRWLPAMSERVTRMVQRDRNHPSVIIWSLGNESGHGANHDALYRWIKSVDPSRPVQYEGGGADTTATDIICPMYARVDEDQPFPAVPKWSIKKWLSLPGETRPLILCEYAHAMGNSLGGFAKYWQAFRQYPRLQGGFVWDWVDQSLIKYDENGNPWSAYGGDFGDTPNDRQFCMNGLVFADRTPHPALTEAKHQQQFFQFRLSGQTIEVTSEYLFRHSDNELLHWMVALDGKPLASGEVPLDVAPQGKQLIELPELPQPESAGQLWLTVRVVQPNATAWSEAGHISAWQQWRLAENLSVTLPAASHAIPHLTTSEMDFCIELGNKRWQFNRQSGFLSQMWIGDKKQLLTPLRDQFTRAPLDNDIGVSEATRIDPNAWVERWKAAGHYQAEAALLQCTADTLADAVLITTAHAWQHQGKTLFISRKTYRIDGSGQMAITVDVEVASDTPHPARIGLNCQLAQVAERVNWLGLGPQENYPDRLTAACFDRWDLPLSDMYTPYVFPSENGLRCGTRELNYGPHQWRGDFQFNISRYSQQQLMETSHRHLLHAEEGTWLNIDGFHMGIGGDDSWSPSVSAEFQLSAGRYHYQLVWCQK
T6 sequence (P09923 whole entry): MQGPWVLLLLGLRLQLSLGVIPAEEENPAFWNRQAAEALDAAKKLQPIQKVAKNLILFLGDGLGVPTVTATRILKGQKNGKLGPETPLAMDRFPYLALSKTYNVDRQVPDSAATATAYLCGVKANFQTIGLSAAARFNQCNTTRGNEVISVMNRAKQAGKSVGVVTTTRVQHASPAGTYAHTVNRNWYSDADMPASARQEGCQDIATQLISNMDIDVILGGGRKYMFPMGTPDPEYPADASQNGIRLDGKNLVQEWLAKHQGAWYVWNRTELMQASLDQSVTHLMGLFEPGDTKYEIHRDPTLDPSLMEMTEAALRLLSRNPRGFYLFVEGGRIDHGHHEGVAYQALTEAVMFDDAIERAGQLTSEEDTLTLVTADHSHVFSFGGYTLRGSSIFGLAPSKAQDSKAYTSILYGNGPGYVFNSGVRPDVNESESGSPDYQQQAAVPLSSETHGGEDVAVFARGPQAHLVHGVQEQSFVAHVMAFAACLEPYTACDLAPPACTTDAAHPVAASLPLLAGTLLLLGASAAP
Sequence of UDP-galactopyranose mutase (P9WIQ1 whole entry): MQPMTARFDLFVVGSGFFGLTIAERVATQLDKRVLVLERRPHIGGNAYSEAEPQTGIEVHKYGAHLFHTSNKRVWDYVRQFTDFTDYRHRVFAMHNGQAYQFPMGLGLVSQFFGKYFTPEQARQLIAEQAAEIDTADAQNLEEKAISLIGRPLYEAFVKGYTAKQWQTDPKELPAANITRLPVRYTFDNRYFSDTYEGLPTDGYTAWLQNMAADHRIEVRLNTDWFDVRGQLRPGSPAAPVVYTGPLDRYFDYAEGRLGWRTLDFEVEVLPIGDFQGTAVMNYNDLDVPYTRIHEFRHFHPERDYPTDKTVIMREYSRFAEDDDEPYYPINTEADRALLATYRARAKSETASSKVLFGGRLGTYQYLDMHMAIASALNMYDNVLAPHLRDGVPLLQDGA
Sequence of C-C chemokine receptor type 6 (P51684 whole entry): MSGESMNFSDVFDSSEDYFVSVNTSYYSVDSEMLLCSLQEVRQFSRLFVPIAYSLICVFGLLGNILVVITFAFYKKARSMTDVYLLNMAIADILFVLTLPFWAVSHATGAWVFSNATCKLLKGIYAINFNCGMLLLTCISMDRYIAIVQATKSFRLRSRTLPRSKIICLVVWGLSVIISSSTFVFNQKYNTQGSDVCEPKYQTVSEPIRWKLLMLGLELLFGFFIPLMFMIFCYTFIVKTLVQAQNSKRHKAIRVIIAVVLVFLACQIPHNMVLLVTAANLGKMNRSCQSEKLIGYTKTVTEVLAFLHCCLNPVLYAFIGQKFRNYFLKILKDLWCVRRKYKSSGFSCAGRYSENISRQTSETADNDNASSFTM
Sequence of Apelin receptor (P35414 whole entry, the tested form may be a part): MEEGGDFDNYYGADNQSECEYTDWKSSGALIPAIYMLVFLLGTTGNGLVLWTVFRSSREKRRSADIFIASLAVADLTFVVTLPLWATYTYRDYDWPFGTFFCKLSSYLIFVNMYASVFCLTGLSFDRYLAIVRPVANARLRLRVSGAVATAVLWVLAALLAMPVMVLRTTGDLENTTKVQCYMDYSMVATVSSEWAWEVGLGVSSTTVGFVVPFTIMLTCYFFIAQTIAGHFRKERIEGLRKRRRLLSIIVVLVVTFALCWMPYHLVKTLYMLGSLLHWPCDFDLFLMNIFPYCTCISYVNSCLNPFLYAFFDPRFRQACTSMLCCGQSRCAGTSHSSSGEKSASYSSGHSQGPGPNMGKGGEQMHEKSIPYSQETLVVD
Sequence of Keap1/Nrf2 (Q16236 whole entry): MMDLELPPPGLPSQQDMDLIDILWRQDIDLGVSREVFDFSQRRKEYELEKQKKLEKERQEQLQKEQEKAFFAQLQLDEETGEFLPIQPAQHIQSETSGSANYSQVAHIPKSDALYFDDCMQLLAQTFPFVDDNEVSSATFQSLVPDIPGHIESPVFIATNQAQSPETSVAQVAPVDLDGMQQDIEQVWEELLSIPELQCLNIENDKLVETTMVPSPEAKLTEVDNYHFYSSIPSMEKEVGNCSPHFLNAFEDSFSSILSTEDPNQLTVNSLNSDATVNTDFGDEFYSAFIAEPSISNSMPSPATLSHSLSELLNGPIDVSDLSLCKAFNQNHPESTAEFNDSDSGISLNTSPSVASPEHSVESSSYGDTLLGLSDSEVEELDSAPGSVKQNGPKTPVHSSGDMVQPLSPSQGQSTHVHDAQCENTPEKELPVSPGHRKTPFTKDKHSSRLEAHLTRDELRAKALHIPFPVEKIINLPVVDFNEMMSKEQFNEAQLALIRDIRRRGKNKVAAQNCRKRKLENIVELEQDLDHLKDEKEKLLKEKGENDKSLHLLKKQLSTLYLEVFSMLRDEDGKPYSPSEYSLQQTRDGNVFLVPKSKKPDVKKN
Sequence of Keap1/Nrf2 (Q14145 whole entry): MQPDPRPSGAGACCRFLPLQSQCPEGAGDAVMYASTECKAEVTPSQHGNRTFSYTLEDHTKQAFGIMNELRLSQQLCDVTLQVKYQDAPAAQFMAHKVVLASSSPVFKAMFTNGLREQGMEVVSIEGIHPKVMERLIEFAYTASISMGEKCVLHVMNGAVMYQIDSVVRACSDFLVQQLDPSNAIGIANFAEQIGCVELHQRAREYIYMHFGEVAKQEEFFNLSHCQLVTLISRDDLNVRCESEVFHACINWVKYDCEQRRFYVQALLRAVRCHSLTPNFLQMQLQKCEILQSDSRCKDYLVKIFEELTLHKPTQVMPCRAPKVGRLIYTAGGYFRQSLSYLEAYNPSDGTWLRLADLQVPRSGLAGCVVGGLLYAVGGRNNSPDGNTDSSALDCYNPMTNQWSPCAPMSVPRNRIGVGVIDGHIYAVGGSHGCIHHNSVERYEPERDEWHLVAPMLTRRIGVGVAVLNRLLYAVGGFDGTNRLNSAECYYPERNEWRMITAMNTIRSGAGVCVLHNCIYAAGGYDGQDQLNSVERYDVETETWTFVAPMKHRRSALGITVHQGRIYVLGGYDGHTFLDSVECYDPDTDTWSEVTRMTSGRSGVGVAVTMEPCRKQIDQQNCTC
Sequence of Intestinal-type alkaline phosphatase (Mus musculus, UniProt P24822) (P24822 whole entry): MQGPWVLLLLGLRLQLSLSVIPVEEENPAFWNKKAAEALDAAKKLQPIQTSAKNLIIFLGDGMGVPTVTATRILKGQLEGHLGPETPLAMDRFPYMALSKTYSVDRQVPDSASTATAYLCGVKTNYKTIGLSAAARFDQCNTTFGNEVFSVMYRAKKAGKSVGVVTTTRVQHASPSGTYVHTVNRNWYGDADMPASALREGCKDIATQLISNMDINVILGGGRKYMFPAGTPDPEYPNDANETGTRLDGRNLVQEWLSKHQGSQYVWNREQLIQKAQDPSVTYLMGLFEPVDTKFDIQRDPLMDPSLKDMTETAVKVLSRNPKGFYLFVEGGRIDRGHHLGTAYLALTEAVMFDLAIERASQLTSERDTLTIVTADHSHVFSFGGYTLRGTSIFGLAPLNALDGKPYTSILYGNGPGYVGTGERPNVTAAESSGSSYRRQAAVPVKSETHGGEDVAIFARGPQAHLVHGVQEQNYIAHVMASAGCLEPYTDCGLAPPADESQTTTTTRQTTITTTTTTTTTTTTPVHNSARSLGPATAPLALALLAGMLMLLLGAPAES
Sequence of Cytochrome P450 2C19 (P33261 whole entry): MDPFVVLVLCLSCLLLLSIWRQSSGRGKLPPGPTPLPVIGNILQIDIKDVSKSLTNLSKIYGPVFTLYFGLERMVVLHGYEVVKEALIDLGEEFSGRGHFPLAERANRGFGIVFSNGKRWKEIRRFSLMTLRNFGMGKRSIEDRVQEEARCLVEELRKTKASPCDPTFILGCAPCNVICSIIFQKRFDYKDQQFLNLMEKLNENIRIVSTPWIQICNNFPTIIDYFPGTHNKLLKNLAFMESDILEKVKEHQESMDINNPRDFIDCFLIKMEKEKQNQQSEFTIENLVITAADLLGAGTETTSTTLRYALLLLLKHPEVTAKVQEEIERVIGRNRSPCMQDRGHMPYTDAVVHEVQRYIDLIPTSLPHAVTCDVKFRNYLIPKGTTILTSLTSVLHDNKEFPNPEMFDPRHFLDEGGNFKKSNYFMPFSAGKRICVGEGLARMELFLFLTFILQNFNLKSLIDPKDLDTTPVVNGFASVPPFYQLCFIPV

Take `COC(=O)Cn1cc(C=C2C(=O)N(C)C(=O)N(C)C2=O)c2ccccc21`: in data set [1], the AC50 is 129 µM (active). Also, the EC50 in data set [2] was 3.15 µM (inconclusive); in data set [3], 2.85 µM (inconclusive).
On to `COc1ccc(-c2oc3ccccc3c(=O)c2OC(=O)c2ccc(C)cc2)cc1`, for which the AC50 in [4] was 1 µM (inconclusive); in data set [5], “inconclusive”; in data set [6], 1.41 µM (inconclusive).
Turning to `CCOC(=O)N1CCN(C(=O)C2CCN(C(=O)c3ccccc3C)CC2)CC1`, the IC50 in data set [7] and in data set [8] was > 66.6 µM (inactive) throughout.
With `Cc1ccc(S(=O)(=O)Nc2cccc(S(=O)(=O)Nc3ccccc3C(=O)O)c2)c(C)c1`, in [9], the AC50 was > 52 µM (inactive).
In the case of `COc1cccc(/C=N/Nc2nc(Nc3ccccc3)nc(-n3nc(C)cc3C)n2)c1O`, the IC50 in data set [7] and in data set [15] was > 66.6 µM (inactive) each time. Further, the 50% effective concentration (EC50) in data set [10] was 8.28 µM (active); in data set [12] it was > 59.6 µM (inactive); in data set [13], 0.127 µM (active); in data set [14], 1.7 µM (active); in [16] it was > 59.6 µM (inactive); in [18], 4.15 µM (active). Moreover, the EC50 in [19] is 52.9 µM (active); in data set [20], > 150 µM (not active). In addition, the CC50 in [11] was 8.56 µM (active). In [17], the AC50 is 0.535 µM (active).
As for `CC1C(=O)NN=C1C(=O)N/N=C\c1ccc(O)cc1O` (centres undefined), the half-inhibitory concentration (IC50) in [21] was 7.32 µM (active); in [22], 15.9 µM (active); in [25], 45.4 µM (active); in data set [27], 7.72 µM (active); in data set [28], > 100 µM (inactive). For the same compound, the EC50 was 8.3 µM (active) in [23] and 11.3 µM (active) in data set [24]. Also, the CC50 in data set [26] is 100 µM (active).
